Drawing on PubChem BioAssay AID493062 (The Scripps Research Institute Molecular Screening Center, 2011), this text covers EC50 for 50 molecules.

In test [1] the test system is 2B4/BCL-2. As to the kind of experiment: caspase activation in 2B4/MCL-1 versus 2B4/BCL-2 cells, late-stage follow-up, selectivity assay for MCL1-BIM inhibitor project, cell-based, fluorescence, assay provider data (AID 493062). As to conditions: 2B4/MCL-1 caspase activation fluorescence.
Test [2] has as its system 2B4/MCL-1. The description is as above. As to conditions: 2B4/MCL-1 caspase activation fluorescence.

For the molecule `O=C(NC1CCC(O)CC1)c1cc(-c2ccco2)nc2ccccc12` (stereo not given), the EC50 in test [1] and in test [2] was over 25 µM throughout.

Take `O=C(Nc1cccnc1)c1cc(-c2ccco2)nc2ccc(Br)cc12`: the EC50 was over 25 µM in test [1] and 10 µM in test [2].

Regarding `O=C(Nc1ccccn1)c1cc(-c2ccco2)nc2ccc(Br)cc12`, the EC50 in test [1] was 3 µM; in test [2], over 25 µM.

With `O=C(c1cc(-c2ccco2)nc2ccccc12)N1CCCC(C(F)(F)F)C1` (stereo not given), the EC50 in test [1] and in test [2] was over 25 µM in each case.

`COc1ccc(Cc2nnc(NC(=O)Cc3ccncc3)s2)cc1OC`: the EC50 in test [1] and in test [2] was over 25 µM each time.

Turning to `COc1ccccc1CC(=O)Nc1nnc(Cc2ccc(OC)c(OC)c2)s1`, the EC50 in test [1] and in test [2] was over 25 µM throughout.

Turning to `Cc1ccc(NC(=O)c2cc(-c3ccc(C)o3)nc3ccccc23)nc1`, the EC50 in test [1] and in test [2] was over 25 µM each time.

Take `COc1ccc(Cc2nnc(NC(=O)Cc3sc(=S)[nH]c3C)s2)cc1OC`: the EC50 in test [1] and in test [2] was over 25 µM each time.

With `COc1ccc(Cc2nnc(NC(=O)Cc3c[nH]c4ccccc34)s2)cc1OC`, the EC50 in test [1] and in test [2] was over 25 µM each time.

Regarding `Cc1nnc(NC(=O)c2cc(-c3ccco3)nc3ccccc23)s1`, the EC50 in test [1] and in test [2] was over 25 µM in each case.

As for `Cc1ccc(-c2cc(C(=O)N3CCN(c4ccccc4O)CC3)c3ccccc3n2)o1`, the EC50 in test [1] and in test [2] was over 25 µM each time.

`CN(CCOc1ccccc1)C(=O)c1cc(-c2ccco2)nc2ccccc12`: the half-maximal effective concentration (EC50) in test [1] and in test [2] was over 25 µM in each case.

As for `COc1ccc(CC(=O)Nc2nnc(Cc3ccc(OC)c(OC)c3)s2)cc1`, the EC50 in test [1] and in test [2] was over 25 µM each time.

For the molecule `COc1cccc(NC(=O)c2cc(-c3ccco3)nc3ccccc23)c1`, the EC50 in test [1] and in test [2] was over 25 µM throughout.

Consider `Cc1ccc(-c2cc(C(=O)N(C)CC(=O)Nc3ccccc3Br)c3ccccc3n2)o1`, for which the EC50 in test [1] and in test [2] was over 25 µM throughout.

For `COc1ccc(NC(=O)c2cc(-c3ccc(C)o3)nc3ccccc23)cc1OC`, the EC50 in test [1] and in test [2] was over 25 µM throughout.

Turning to `COc1cccc(NC(=O)c2cc(-c3ccc(C)o3)nc3ccccc23)c1`, the concentration for a half-maximal effect (EC50) in test [1] and in test [2] was over 25 µM each time.

As to `COc1ccc(NC(=O)c2cc(-c3ccco3)nc3ccccc23)cn1`, the concentration giving a half-maximal response (EC50) in test [1] and in test [2] was over 25 µM in each case.

Consider `COc1ccc(NC(=O)c2cc(-c3ccco3)nc3ccccc23)cc1S(=O)(=O)N1CCOCC1`, for which the EC50 in test [1] and in test [2] was over 25 µM each time.

Take `CCCN(C(=O)c1cc(-c2ccco2)nc2ccccc12)c1c(N)n(Cc2ccccc2)c(=O)[nH]c1=O`: the EC50 in test [1] and in test [2] was over 25 µM each time.

As for `COCCN(C(=O)c1cc(-c2ccco2)nc2ccccc12)c1c(N)n(Cc2ccccc2)c(=O)[nH]c1=O`, the EC50 in test [1] and in test [2] was over 25 µM each time.

In the case of `COc1ccc(Cc2nnc(NC(=O)Cc3ccc4c(c3)OCO4)s2)cc1OC`, the EC50 in test [1] and in test [2] was over 25 µM in each case.

As for `O=C(Nc1nccs1)c1cc(-c2ccco2)nc2ccccc12`, the EC50 in test [1] and in test [2] was over 25 µM in each case.

As to `CCOC(=O)C1CCCN(C(=O)c2cc(-c3ccco3)nc3ccccc23)C1` (stereo not given), the EC50 in test [1] and in test [2] was over 25 µM in each case.

For the molecule `Cc1ccc(-c2cc(C(=O)Nc3ccccn3)c3ccccc3n2)o1`, the EC50 in test [1] and in test [2] was over 25 µM each time.

In the case of `O=C(Nc1cccc(F)c1)c1cc(-c2ccco2)nc2ccccc12`, the EC50 in test [1] and in test [2] was over 25 µM each time.

On to `COc1ccc(Cc2nnc(NC(=O)Cc3ccsc3)s2)cc1OC`, for which the EC50 in test [1] and in test [2] was over 25 µM each time.

With `CN(C)C(CNC(=O)c1cc(-c2ccco2)nc2ccccc12)c1ccccc1` (stereo not given), the concentration for a half-maximal effect (EC50) in test [1] and in test [2] was over 25 µM each time.

Regarding `NS(=O)(=O)c1ccc(CCNC(=O)c2cc(-c3ccco3)nc3ccccc23)cc1`, the EC50 in test [1] and in test [2] was over 25 µM each time.

Turning to `CCOC(=O)c1cc(-c2ccco2)nc2c1c(C)nn2-c1ccccc1`, the EC50 in test [1] and in test [2] was over 25 µM each time.

As for `O=C(Nc1cccc(S(=O)(=O)NC2=NCCC2)c1)c1cc(-c2ccco2)nc2ccccc12`, the EC50 in test [1] and in test [2] was over 25 µM each time.

As to `COc1ccc(Cc2nnc(NC(=O)CCc3ccco3)s2)cc1OC`, the EC50 in test [1] was 1.5 µM; in test [2], 0.8 µM.

`O=C(Nc1nncs1)c1cc(-c2ccco2)nc2ccccc12`: the concentration for a half-maximal effect (EC50) in test [1] and in test [2] was over 25 µM throughout.

With `CN(C)C(=O)c1ccc(NC(=O)c2cc(-c3ccco3)nc3ccccc23)cc1`, the half-maximal effective concentration (EC50) in test [1] and in test [2] was over 25 µM each time.

In the case of `CCC(=O)Nc1nnc(Cc2ccccc2)s1`, the EC50 in test [1] and in test [2] was over 25 µM throughout.

Take `COc1cccc(NC(=O)CN(C)C(=O)c2cc(-c3ccc(C)o3)nc3ccccc23)c1`: the EC50 in test [1] and in test [2] was over 25 µM in each case.

On to `CCCn1c(N)c(N(CCOC)C(=O)c2cc(-c3ccco3)nc3ccccc23)c(=O)[nH]c1=O`, for which the EC50 in test [1] and in test [2] was over 25 µM throughout.

In the case of `COc1ccc(Cc2nnc(NC(=O)C(F)c3ccccc3)s2)cc1OC` (stereo not given), the EC50 in test [1] and in test [2] was over 25 µM each time.

In the case of `CCCCN(C(=O)c1cc(-c2ccco2)nc2ccccc12)c1c(N)n(CCCC)c(=O)[nH]c1=O`, the EC50 in test [1] and in test [2] was over 25 µM throughout.

Consider `Cc1cccc(NC(=O)c2cc(-c3ccc(C)o3)nc3ccccc23)n1`, for which the results for the EC50 in test [1] and in test [2] were 25 µM and 40 µM, respectively.

Turning to `Cc1cccc(NC(=O)c2cc(-c3ccco3)nc3ccccc23)n1`, the EC50 in test [1] and in test [2] was over 25 µM each time.

`Cc1ccc(S(=O)(=O)N(C)C)cc1NC(=O)c1cc(-c2ccco2)nc2ccccc12`: the EC50 in test [1] and in test [2] was over 25 µM in each case.

Turning to `COc1ccc(Cc2nnc(NC(=O)Cc3cccnc3)s2)cc1OC`, the EC50 in test [1] and in test [2] was over 25 µM each time.

Consider `CCN1CCN(C(=O)c2cc(-c3ccco3)nc3ccccc23)CC1`, for which the EC50 in test [1] and in test [2] was over 25 µM in each case.

Regarding `Cc1ccnc(NC(=O)c2cc(-c3ccco3)nc3ccc(Br)cc23)c1`, the figures for the EC50 in test [1] and in test [2] were over 25 µM and 12 µM, respectively.

As for `O=C(CCn1nnc2ccccc21)Nc1nnc(Cc2ccccc2)s1`, the EC50 in test [1] and in test [2] was over 25 µM each time.

Consider `COc1ccc(NC(=O)CN(C)C(=O)c2cc(-c3ccc(C)o3)nc3ccccc23)cc1`, for which the EC50 in test [1] and in test [2] was over 25 µM throughout.

For the molecule `COc1ccc(Cc2nnc(NC(=O)Cc3cccs3)s2)cc1`, the EC50 in test [1] and in test [2] was over 25 µM each time.

With `CCCCN(C(=O)c1cc(-c2ccco2)nc2ccccc12)c1c(N)n(CCC)c(=O)[nH]c1=O`, the EC50 in test [1] and in test [2] was over 25 µM in each case.

`COc1ccc(Cc2nnc(NC(=O)c3cc(-c4ccco4)nc4ccc(Br)cc34)s2)cc1OC`: the EC50 in test [1] was found to be 7.5 µM; in test [2], 11 µM.
